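Values below derive from 48-hour exposures of cells grown in 96-well plates, with endpoints linearly interpolated between the two concentrations bracketing the appropriate inhibition level. At the GI50, growth is halved.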 The source made the active and inactive calls. Cut-off read from the data, not from the text of the source: active = GI50 up to about 1.1 µM and inactive = higher. Where a SMILES comes first, the peptide text is derived from it. The star is where a group is joined. OSu = O=C1CCC(=O)N1O*; OBn = c1ccc(CO*)cc1; Bn = c1ccc(C*)cc1
Experiments:
Assay in all cases: NCI tumour cell line growth inhibition, 48 h
MDA-MB-231 = system: MDA-MB-231
MDA-N = system: MDA-N
BT-549 = system: BT-549
Hs-578T = system: Hs-578T
T47D = system: T47D
MDA-MB-435 = system: MDA-MB-435
XF498 = system: XF498
RXF 631 = system: RXF 631
LXFL 529 = system: LXFL 529

Compound	GI50 (MDA-MB-231)	GI50 (MDA-N)	GI50 (BT-549)	GI50 (Hs-578T)	GI50 (T47D)	GI50 (MDA-MB-435)	GI50 (XF498)	GI50 (RXF 631)	GI50 (LXFL 529)
O=C1c2ccccc2-c2ccc(N(Cc3ccc(Br)cc3)Cc3ccc(Br)cc3)cc21	> 100 µM (inactive)	> 100 µM (inactive)	> 100 µM (inactive)	> 100 µM (inactive)	> 100 µM (inactive)	> 100 µM (inactive)	–	–	–
O=C1C=CC2OC(c3ccccc3)C(O)C2O1 (stereo not given)	–	–	–	–	–	–	2.8 µM (inactive)	–	–
CSCSCC(CO)NC(=O)/C=C\c1c(C)[nH]c(=O)[nH]c1=O (stereo not given)	–	–	–	–	–	–	1.61 µM (inactive)	–	–
NC(=O)C(=O)N/N=C1/c2ccccc2CC1C1(O)C(=O)Nc2c(Cl)cc(Cl)cc21 (stereo not given)	–	–	–	–	–	–	> 100 µM (inactive)	–	–
CN1CCc2c1nc(-c1ccc([N+](=O)[O-])cc1)c1c2N(C)CC1	–	–	–	–	–	–	> 100 µM (inactive)	> 100 µM (inactive)	> 100 µM (inactive)
N/C(=N\O)N/N=C\c1ccccc1O	–	–	–	–	–	–	1.04 µM (active)	–	–
Oc1ccc(Cl)cc1C1=Nn2c(COc3ccc4c(c3)CCCC4)nnc2SC1	14.8 µM (inactive)	14.6 µM (inactive)	18.3 µM (inactive)	14.3 µM (inactive)	11.2 µM (inactive)	17 µM (inactive)	–	–	–
C/C=C1\C=C(OC)CN(CCc2c[nH]c3ccccc23)C1	–	–	–	–	–	–	32.9 µM (inactive)	–	9.4 µM (inactive)
O=C(O)c1ccccc1/C=N\N(CCO)C1=NCCN1	> 100 µM (inactive)	> 100 µM (inactive)	> 100 µM (inactive)	> 100 µM (inactive)	> 100 µM (inactive)	> 100 µM (inactive)	–	–	–
CCOC(=O)C1C(c2cc(OC)c(O)c(OC)c2)c2cc3c(cc2OC1(C)O)OCO3 (stereo not given)	–	–	–	–	–	–	31 µM (inactive)	75.9 µM (inactive)	–
CC(=O)OC1C=C(C=O)C(O)(C=O)C2(C)CCCC(C)(C)C12 (stereo not given)	–	–	–	–	–	–	1.49 µM (inactive)	–	–
Cn1ncc2c(=O)[nH]c(-c3ccccc3)nc21	–	–	–	–	–	–	> 100 µM (inactive)	> 100 µM (inactive)	–
COc1ccc(C2C(=O)C(Cl)N2Nc2nc(C)cc(O)n2)cc1OC (stereo not given)	–	–	–	–	–	–	–	–	41.3 µM (inactive)
CC(=N/NC(=S)N1CCCCCC1)/C(C)=N\NC(=S)N1CCCCCC1	7.98 µM (inactive)	6.55 µM (inactive)	5.27 µM (inactive)	3.87 µM (inactive)	1.75 µM (inactive)	1.83 µM (inactive)	–	–	–
O=c1ccn(C2OC(CN(O)CCC3C(O)C(CO)OC3n3ccc(=O)[nH]c3=O)C(O)C2O)c(=O)[nH]1 (stereo not given)	> 100 µM (inactive)	> 100 µM (inactive)	> 100 µM (inactive)	> 100 µM (inactive)	> 100 µM (inactive)	> 100 µM (inactive)	–	–	–
CCOC(=O)c1c(NC(=S)NCc2ccccc2)sc2c1CCN(C)C2	47.8 µM (inactive)	> 100 µM (inactive)	59 µM (inactive)	64.4 µM (inactive)	41.5 µM (inactive)	–	–	–	–
[N-]=[N+]=NC1(c2ccccc2)C(=O)Nc2ccccc2C1=O (stereo not given)	55.2 µM (inactive)	21.4 µM (inactive)	13.8 µM (inactive)	22.3 µM (inactive)	95.5 µM (inactive)	11.3 µM (inactive)	–	–	–
COc1ccc2c(c1)C/C(=C\c1ccc(O)c(OC)c1)C2=O	–	–	> 100 µM (inactive)	> 100 µM (inactive)	–	–	–	–	–
NC1CC(=O)c2sc(I)cc21 (stereo not given)	> 100 µM (inactive)	> 100 µM (inactive)	> 100 µM (inactive)	–	> 100 µM (inactive)	88.7 µM (inactive)	–	–	–
C=C1C(=O)O[C@H]2C/C(C)=C/CC[C@@]3(C)O[C@](C)(CC[C@@H]3I)[C@@H](I)C[C@@H]12	6.75 µM (inactive)	2.49 µM (inactive)	4.75 µM (inactive)	8.49 µM (inactive)	5.46 µM (inactive)	3.86 µM (inactive)	–	–	–
CN1C(CC(O)c2ccccc2)CCCC1CC(O)(c1ccccc1)c1ccccc1 (stereo not given)	22.6 µM (inactive)	18.5 µM (inactive)	–	–	21 µM (inactive)	–	–	–	–
CCCOC(=O)CNC(=O)OC(C)(C)C	–	–	–	–	–	–	> 100 µM (inactive)	> 100 µM (inactive)	> 100 µM (inactive)
O=C1OC(c2ccccc2)=N/C1=C\c1cccnc1	–	–	59.8 µM (inactive)	> 100 µM (inactive)	–	> 100 µM (inactive)	–	–	–
CC(C)CC(NC(=O)C(N)CCC(=O)OCc1ccccc1)C(=O)NC(COCc1ccccc1)C(=O)NC(Cc1ccccc1)C(=O)ON1C(=O)CCC1=O (stereo not given) (H-E(OBn)LS(Bn)F-OSu; configuration not given here)	18.1 µM (inactive)	21.4 µM (inactive)	–	26.4 µM (inactive)	–	33 µM (inactive)	–	–	–
CC(C)C1=CC2=CC[C@@H]3[C@](C)(CCC[C@@]3(C)C(=O)O)[C@H]2CC1 [ABIETIC ACID]	–	–	–	–	–	–	73.6 µM (inactive)	62.8 µM (inactive)	64.3 µM (inactive)

Source: ChEMBL document CHEMBL1201862, “PubChem BioAssay data set” (2004)
